Experimental data from US8765783B2, “Pharmaceutical composition for treatment of disease due to vascular constriction or vasodilation” (Ono Pharmaceuticals Co., Ltd., priority 2002, dated 2014).
“Also recorded” adds a separate entry of the source.

Columns and labels:
[1] = tested on: rat basilar artery; experiment: Vasoconstrictor action of rat basilar artery induced by S1P into cisterna (in vivo); settings: 10 μg/100 μL/rat, i.c., 30 minutes after S1P into cisterna
Excerpt: Rat (CD(SD)IGS, male, Charles River Japan Inc., 11 weeks old-13 weeks old, 400-550 g) was anesthetized by injection of urethane (1.2 g/kg, s.c.), incised scalp of occipital for administration of S1P into cisterna and then fixed to dorsal position. Rat was inserted into trachea with catheter and then, cut down with esophagus, and skull at the base of brain was exposed. Under the stereomicroscope, craniotomy was carefully operated with electric drill and scorper forceps. We made basilar artery expose, and it was done in the condition which arachnoid was left, and coating on basilar artery was exfoliated, and could be observed. Observation and image capture of basilar artery were performed using the stereomicroscope (Olympus Optics Inc., SZH-10) and charge-coupled device (CCD) camera (FUJIFILM, HC-2500) connected with it. Macscope (MITANI Corp.) was used as an Image capture software. […] Diameter of basilar artery was measured by selecting from an area having no branch in the center of basilar artery. The diameter was calculated by comparing with the length of micrometer (0.2 mm, 0.01 mm scale) shooted in the same condition. […] The calculation of percentage of basilar artery diameter was calculated by dividing diameter after the S1P administration by a pre-value. […]

[2] = tested on: SD rat; experiment: Increase of rat blood pressure by S1P; format: in vivo; settings: anesthetized male SD rat, intraperitoneally injected
Procedure: Male SD Rat (8 weeks old-10 weeks old) was anesthetized by injection of pentobarbital sodium (50 mg/mL/kg), after midline incision in the cervical region, trachea was exposed by exfoliation of tracheal muscle layer and cannula made of polyethylene was inserted into trachea. Next, catheter made of polyethylene was inserted into the common carotid artery and the common jugular vein. Catheter inserted into the common carotid artery was connected to the piezotransducer and the blood pressure was recorded on the recorder through strain compression amplifier. After the above mentioned operation was finished, in the case of the spinal chord was broken, the spinal chord was broken by insertion of stainless pole into the spinal chord cavity. After the spinal chord was broken, tracheal cannula was immediately connected into the artificial breathing device for small animals and artificial ventilation was performed under the conditions of a ventilatory volume 6 mL/kg and velocity 60 times/min. After then, S1P was administered and we confirmed blood pressure was increased. […] As a result, the compound (3) inhibited the increase of blood pressure by S1P.

[3] = tested on: SHR rat; experiment: Blood pressure of SHR rat; format: in vivo; settings: 1 mg/kg, 3 mg/kg and 10 mg/kg, i.v.; SHR rat under the awakening
Excerpt: Rat (SHR/Crj, male, Charles River Japan Inc., 12 weeks old-13 weeks old) was anesthetized by ether, and then rat was fixed in the dorsal position on the laboratory table. Cannula filled with physiologic saline containing heparin was inserted into the femoral artery and cannula filled with physiologic saline was inserted into the femoral vein, respectively. After finish of the operation, rat was fixed in the ballmancage and left at rest until the awakening. The artery cannula was connected to the piezotransducer (DX-100, Nihon Kohden) and the blood pressure was measured through strain compression amplifier(AP-601G, Nihon Kohden). After about 30 minutes from confirming awakening of rat, the blood pressure was measured for additional 30 minutes and then, the compound (3) (1 mg/kg, 3 mg/kg, and 10 mg/kg, i.v.) or vehicle (10% DMSO/plasma) was administered intravenously. After administration, blood pressure was measured for more than 30 minutes. […] In contrast, the compound (3) had little effect on the heart rate.

[4] = tested on: rat removed basilar artery; experiment: Vasoconstrictor action of rat removed basilar artery; settings: 3 μM (FIG. 3, FIG. 4)
Procedure: Basilar arteries were removed from male rat (CD(SD)IGS, male, Charles River Japan, Inc., 8 weeks old-10 weeks old, 350-450 g) and quickly immersed in cooled Krebs-Henseleit solution. Removed basilar arteries were divided by about 3 mm width with ophthalmic scissors and made as ringed samples. Samples hung in micro tissue organ bath (MTOB-1: Preimetech Corp.) filled with Krebs-Henseleit solution (37° C.). They were loaded with about 0.2 g resting tension stabilized for about 60 minutes, and then constrictive movement was recorded on a recorder (linearcoda WR3320: Graphtec Corp.) through strain compression amplifier (AP-601G, Nihon Kohden) from micro tissue organ bath.

[5] = tested on: removed rabbit coronary artery; experiment: Vasoconstrictor action of removed rabbit coronary artery; settings: removed rabbit coronary artery ring
Procedure: The heart was removed from Male rabbit (NZ White, a bout 2 kg) under anesthesia and immersed into cooled Krebs-Henseleit solution. After that, coronary artery was cut out, heart muscle and fat tissue connected around the heart were removed and ringed samples were made. Samples hung in micro tissue organ bath (MTOB-1: Preimetech Corp.) filled with Krebs-Henseleit solution (37° C.) or magnus tube, they were loaded with about 0.2 g-0.5 g resting tension stabilized for about 60 minutes, and then constrictive movement was recorded on a recorder (linearcoda WR3320: Graphtec Corp.) through strain compression amplifier (AP-601G, Nihon Kohden).

**Q.** What does the source list for `Cc1nn(C)c2nc(NNC(=O)Nc3cc(Cl)nc(Cl)c3)cc(C(C)C)c12` [compound (3), N-(2,6-dichloro-4-piridinyl)-2-(4-isopropyl-1,3-dimethyl-1H-pyrazolo[3,4-b]pyridin-6-yl)hydrazinecarboxamide]?
**A.** inhibition of vasoconstrictor action of rat basilar artery by S1P (basilar artery diameter) [1]: inhibited; also recorded: suppression; inhibition of the increase of blood pressure by S1P [2]: inhibited; antihypertensive effect on SHR rat blood pressure [3]: antihypertensive effect; inhibitory effect on vasoconstrictor action of rat removed basilar artery by S1P [4]: inhibitory effect; also recorded: suppression; inhibitory activity on constriction of rabbit coronary artery by S1P [5]: inhibitory activity
